Measured values published in patent publication US8592448B2 (OSI Pharmaceuticals, LLC, priority 2008, dated 2013).

Tests used:
[1] = molecular target: T1, phosphorylated c-MET (Homo sapiens, UniProt P08581); experiment: c-MET cell mechanistic assay (phosphorylated c-MET in MKN45 cells); format: cell-based; conditions: MKN45 cell line, four hours incubation, phosphorylated c-MET levels, at least duplicate experiments; read-out: Met mech IC50
T1 construct: endogenous in cells; host or cells: MKN45
Protocol: The cellular activity of the compounds of the present invention may be determined by the following procedure. MKN45 cells were plated in Falcon 3072 96-well plates in growth media (RPMI, 10% FBS, 1% L-glutamine) at a density of 5000 cells/well and incubated at 37° C., 5% CO2 overnight. The following day, one-tenth volume of a 10× concentration of compounds was added to the wells in a 6-point dilution series. The dilutions series was composed of an initial 1:5 dilution in DMSO, followed by a 1:10 dilution in growth media, for a final DMSO concentration on cells of 0.5%. Control wells were treated with 0.5% DMSO. The typical range of dilution was 10 μM to 3 nM. Once compound was added to the cells, plates were incubated for four hours at 37° C., 5% CO2. Plates were then washed in PBS, and lysed in triton-based lysis buffer. Lysates were transferred to a precoated capture plate made by Biosource (Cat # KH00281). The phosphorylated c-MET levels were measured by incubating with a rabbit polyclonal antibody against phosphorylated c-MET ([pYpYpY1230/1234/1235]) followed by an anti-rabbit antibody conjugated to HRP. Signal was measured on a Wallac Victor plate reader at 450 nm. The DMSO signal of the control wells was defined as 100% and the percent of inhibition of phosphorylated c-Met was expressed as percent of control. IC50 values were determined from the percent of control data using a standard four-parameter model.
(§1) The IC50 values of exemplary compounds of the present invention determined in a c-MET cell mechanistic assay using the MKN45 cell line according to the procedures described herein in at least duplicate experiments are abbreviated as follows and are shown in Table 3: A, IC50≦0.1 μM; B, 0.1 μM<IC50≦1 μM; C, 1 μM<IC50≦10 μM; D, IC50>10 μM; ND, not determined. The Example # of Table 3 corresponds to the compound example number as illustrated in the Examples section.

[2] = tested on: MKN45 cells; experiment: MKN45 cell proliferation assay (CellTiter-Glo); format: cell-based; conditions: Homo sapiens, MKN-45, 72 h, MKN45 cell line, 3 days incubation, at least duplicate experiments, read-out: Prolif. IC50
Protocol: The effect of inhibitors on the proliferation of MKN45 cells was determined using the following protocol. MKN45 cells were plated in Corning 3917 96-well white tissue culture treated plates in growth medium (RPMI, 10% FCS) at a density of 5000 cells/well in a total volume of 135 μL and incubated at 37° C., 5% CO2, 95% humidity overnight. The following day, one-tenth volume of a 10× concentration of compounds was added to the wells in an 8-point dilution series. The dilution series was composed of an initial 1:5 dilution of a 10 mM stock of compound in DMSO, followed by serial 1:4 dilutions in DMSO, then a 1:20 dilution in growth medium prior to the 1:10 dilution into the cell plate. Final DMSO concentration on the cells was 0.1%, there were control wells treated with both 0.1% DMSO and no DMSO. The typical dilution range is 10 μM to 0.6 nM. Once the compound was added to the cells, plates were incubated for 3 days at 37° C., 5% CO2 at 95% humidity. On the third day, after allowing all cells and reagents to come to room temperature, 25 μL of CellTiter-Glo reagent (Promega # G7573) was added to the wells. Plates were shaken on a platform for 10 minutes prior to reading luminescence for 0.1 seconds. The signal of the control wells was taken as 100% growth and growth inhibition was expressed as percent of control. IC50 values were determined from the percent of control data using a standard four-parameter model.
as §1, with “a” for “a c-MET”, “proliferation” for “mechanistic”, “2:” for “3:”, “2” for “3”

T1 sequence (P08581 25-1390): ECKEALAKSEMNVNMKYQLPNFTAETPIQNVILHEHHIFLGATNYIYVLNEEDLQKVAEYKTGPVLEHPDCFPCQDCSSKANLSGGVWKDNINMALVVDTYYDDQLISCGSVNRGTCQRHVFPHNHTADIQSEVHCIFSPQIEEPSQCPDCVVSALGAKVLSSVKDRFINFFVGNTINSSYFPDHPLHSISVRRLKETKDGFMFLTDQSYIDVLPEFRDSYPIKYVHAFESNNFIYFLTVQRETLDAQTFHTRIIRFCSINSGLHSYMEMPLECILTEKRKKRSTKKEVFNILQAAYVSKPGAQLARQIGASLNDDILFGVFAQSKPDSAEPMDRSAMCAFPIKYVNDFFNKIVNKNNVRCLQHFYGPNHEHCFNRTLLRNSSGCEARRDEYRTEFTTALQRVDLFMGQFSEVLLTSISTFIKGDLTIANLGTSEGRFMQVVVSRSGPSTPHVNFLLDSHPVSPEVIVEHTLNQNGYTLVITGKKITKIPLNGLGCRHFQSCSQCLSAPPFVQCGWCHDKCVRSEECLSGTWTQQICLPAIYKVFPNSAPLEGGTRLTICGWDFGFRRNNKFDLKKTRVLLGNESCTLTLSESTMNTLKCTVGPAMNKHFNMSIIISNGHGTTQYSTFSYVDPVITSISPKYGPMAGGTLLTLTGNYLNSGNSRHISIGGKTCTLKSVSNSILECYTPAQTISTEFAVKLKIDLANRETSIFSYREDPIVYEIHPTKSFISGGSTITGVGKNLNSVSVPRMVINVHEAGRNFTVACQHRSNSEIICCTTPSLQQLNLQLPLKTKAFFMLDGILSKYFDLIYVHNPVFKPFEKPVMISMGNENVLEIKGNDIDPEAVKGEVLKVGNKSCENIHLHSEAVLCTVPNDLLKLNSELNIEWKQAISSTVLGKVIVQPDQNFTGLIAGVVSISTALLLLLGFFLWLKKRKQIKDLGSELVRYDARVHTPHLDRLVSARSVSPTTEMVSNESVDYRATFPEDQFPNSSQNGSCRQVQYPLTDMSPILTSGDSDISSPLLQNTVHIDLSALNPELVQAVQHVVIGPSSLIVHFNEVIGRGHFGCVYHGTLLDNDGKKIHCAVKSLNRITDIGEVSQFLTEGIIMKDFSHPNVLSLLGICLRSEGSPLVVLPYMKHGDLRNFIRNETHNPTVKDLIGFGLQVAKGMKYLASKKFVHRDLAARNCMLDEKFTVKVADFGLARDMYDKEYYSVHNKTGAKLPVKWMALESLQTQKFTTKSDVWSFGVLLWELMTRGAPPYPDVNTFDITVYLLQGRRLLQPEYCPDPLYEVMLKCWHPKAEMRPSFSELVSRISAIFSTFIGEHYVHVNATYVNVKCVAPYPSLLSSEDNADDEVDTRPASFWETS

Row | Structure (SMILES) | IC50 [1] | IC50 [2]
1 | CC(=O)N1CC=C(c2cnc3[nH]cc(C(C)c4c(Cl)ccc(F)c4Cl)c3c2)CC1 (stereo not drawn) [Example 39, 1-(4-{3-[1-(2,6-Dichloro-3-fluorophenyl)ethyl]-1H-pyrrolo[2,3-b]pyridin-5-yl}-3,6-dihydro-2H-pyridin-1-yl)-ethanone] | 0.1 to 1 µM | 0.1 to 1 µM
2 | CC(c1c(Cl)ccc(F)c1Cl)c1c[nH]c2ncc(C3=CCN(C(=O)[C@@H](C)O)CC3)cc12 (stereo partly drawn) [Example 40, (R)-1-(4-{3-[1-(2,6-Dichloro-3-fluorophenyl)ethyl]-1H-pyrrolo[2,3-b]-pyridin-5-yl}-3,6-dihydro-2H-pyridin-1-yl)-2-hydroxypropan-1-one] | ≤ 0.1 µM | 0.1 to 1 µM
3 | CC(c1c(Cl)ccc(F)c1Cl)c1c[nH]c2ncc(C3=CCN(C(=O)[C@H](C)O)CC3)cc12 (stereo partly drawn) [Example 41, (S)-1-(4-{3-[1-(2,6-Dichloro-3-fluorophenyl)ethyl]-1H-pyrrolo[2,3-b]-pyridin-5-yl}-3,6-dihydro-2H-pyridin-1-yl)-2-hydroxypropan-1-one] | ≤ 0.1 µM | 0.1 to 1 µM
4 | CC(c1c(Cl)ccc(F)c1Cl)c1c[nH]c2ncc(C3=CCN(C(=O)C(C)(C)O)CC3)cc12 (stereo not drawn) [Example 42, 1-(4-{3-[1-(2,6-Dichloro-3-fluorophenyl)ethyl]-1H-pyrrolo[2,3-b]pyridin-5-yl}-3,6-dihydro-2H-pyridin-1-yl)-2-hydroxy-2-methylpropan-1-one] | 0.1 to 1 µM | 0.1 to 1 µM
5 | CC(c1c(Cl)ccc(F)c1Cl)c1c[nH]c2ncc(C3=CCN(C(=O)CO)CC3)cc12 (stereo not drawn) [Example 43, 1-(4-{3-[1-(2,6-Dichloro-3-fluorophenyl)ethyl]-1H-pyrrolo[2,3-b]pyridin-5-yl}-3,6-dihydro-2H-pyridin-1-yl)-2-hydroxyethanone] | ≤ 0.1 µM | ≤ 0.1 µM
6 | CC(c1c(Cl)ccc(F)c1Cl)c1c[nH]c2ncc(C3=CCN(C(=O)C(C)(C)N)CC3)cc12 (stereo not drawn) [Example 45, 2-Amino-1-(4-{3-[1-(2,6-dichloro-3-fluorophenyl)ethyl]-1H-pyrrolo[2,3-b]pyridin-5-yl}-3,6-dihydro-2H-pyridin-1-yl)-2-methylpropan-1-one] | ≤ 0.1 µM | ≤ 0.1 µM
7 | CC(c1c(Cl)ccc(F)c1Cl)c1c[nH]c2ncc(C3=CCN(S(N)(=O)=O)CC3)cc12 (stereo not drawn) [Example 46, 4-{3-[1-(2,6-Dichloro-3-fluorophenyl)ethyl]-1H-pyrrolo[2,3-b]pyridin-5-yl}-3,6-dihydro-2H-pyridine-1-sulfonic acid amide] | 0.1 to 1 µM | 0.1 to 1 µM
8 | CC(c1c(Cl)ccc(F)c1Cl)c1c[nH]c2ncc(-c3cnn(C4CCN(C=O)CC4)c3)cc12 (stereo not drawn) [Example 47, 4-(4-{3-[1-(2,6-Dichloro-3-fluorophenyl)ethyl]-1H-pyrrolo[2,3-b]pyridin-5-yl}-pyrazol-1-yl)-piperidine-1-carbaldehyde] | ≤ 0.1 µM | ≤ 0.1 µM
9 | CC(=O)N1CCC(n2cc(-c3cnc4[nH]cc(C(C)c5c(Cl)ccc(F)c5Cl)c4c3)cn2)CC1 (stereo not drawn) [Example 48, 1-[4-(4-{3-[1-(2,6-Dichloro-3-fluorophenyl)ethyl]-1H-pyrrolo[2,3-b]pyridin-5-yl]-pyrazol-1-yl}-piperidin-1-yl)-ethanone] | ≤ 0.1 µM | ≤ 0.1 µM
10 | CC(c1c(Cl)ccc(F)c1Cl)c1c[nH]c2ncc(-c3cnn(C4CCN(C(N)=O)CC4)c3)cc12 (stereo not drawn) [Example 49, 4-(4-{3-[1-(2,6-Dichloro-3-fluorophenyl)ethyl]-1H-pyrrolo[2,3-b]pyridin-5-yl}-pyrazol-1-yl)-piperidine-1-carboxamide] | 0.1 to 1 µM | ≤ 0.1 µM
11 | CC(c1c(Cl)ccc(F)c1Cl)c1c[nH]c2ncc(-c3cnn(C4CCN(S(C)(=O)=O)CC4)c3)cc12 (stereo not drawn) [Example 50, 3-[1-(2,6-Dichloro-3-fluorophenyl)-ethyl]-5-[1-(1-methanesulfonyl-piperidin-4-yl)-1H-pyrazol-4-yl]-1H-pyrrolo[2,3-b]pyridine] | ≤ 0.1 µM | 0.1 to 1 µM
12 | CNC(=O)N1CCC(n2cc(-c3cnc4[nH]cc(C(C)c5c(Cl)ccc(F)c5Cl)c4c3)cn2)CC1 (stereo not drawn) [Example 51, 4-(4-{3-[1-(2,6-Dichloro-3-fluorophenyl)ethyl]-1H-pyrrolo[2,3-b]pyridin-5-yl}-pyrazol-1-yl)-piperidine-1-carboxylic acid methylamide] | ≤ 0.1 µM | ≤ 0.1 µM
13 | CC(c1c(Cl)ccc(F)c1Cl)c1c[nH]c2ncc(-c3cnn(C4CNC4)c3)cc12 (stereo not drawn) [Example 53, 5-(1-Azetidin-3-yl-1H-pyrazol-4-yl)-3-[1-(2,6-dichloro-3-fluoro-phenyl)ethyl]-1H-pyrrolo[2,3-b]pyridine] | ≤ 0.1 µM | 0.1 to 1 µM
14 | CC(c1c(Cl)ccc(F)c1Cl)c1c[nH]c2ncc(-c3cnn(C4CN(C=O)C4)c3)cc12 (stereo not drawn) [Example 55, 3-(4-{3-[1-(2,6-Dichloro-3-fluorophenyl)ethyl]-1H-pyrrolo[2,3-b]pyridin-5-yl}-pyrazol-1-yl)-azetidine-1-carbaldehyde] | ≤ 0.1 µM | ≤ 0.1 µM

More lines, now with the values ahead:

Row | IC50 [1] | IC50 [2] | Structure (SMILES)
15 | ≤ 0.1 µM | 0.1 to 1 µM | CC(c1c(Cl)ccc(F)c1Cl)c1c[nH]c2ncc(-c3cnn(C4CN(C(N)=O)C4)c3)cc12 (stereo not drawn) [Example 56, 3-(4-{3-[1-(2,6-Dichloro-3-fluorophenyl)ethyl]-1H-pyrrolo[2,3-b]pyridin-5-yl}-pyrazol-1-yl)-azetidine-1-carboxamide]
16 | ≤ 0.1 µM | 0.1 to 1 µM | CC(c1c(Cl)ccc(F)c1Cl)c1c[nH]c2ncc(-c3cnn(C4CN(S(C)(=O)=O)C4)c3)cc12 (stereo not drawn) [Example 57, 3-[1-(2,6-Dichloro-3-fluorophenyl)-ethyl]-5-[1-(1-methanesulfonylazetidin-3-yl)-1H-pyrazol-4-yl]-1H-pyrrolo[2,3-b]pyridine]
17 | ≤ 0.1 µM | 0.1 to 1 µM | CC(=O)N1CC(n2cc(-c3cnc4[nH]cc(C(C)c5c(Cl)ccc(F)c5Cl)c4c3)cn2)C1 (stereo not drawn) [Example 58, 1-[3-(4-{3-[1-(2,6-Dichloro-3-fluorophenyl)-ethyl]-1H-pyrrolo[2,3-b]pyridin-5-yl}-pyrazol-1-yl)-azetidin-1-yl]-ethanone]
18 | 0.1 to 1 µM | 0.1 to 1 µM | CC(c1c(Cl)ccc(F)c1Cl)c1c[nH]c2ncc(-c3cnn(C4CN(C(=O)N(C)C)C4)c3)cc12 (stereo not drawn) [Example 59, 3-(4-{3-[1-(2,6-Dichloro-3-fluorophenyl)ethyl]-1H-pyrrolo[2,3-b]pyridin-5-yl}-pyrazol-1-yl)-azetidine-1-carboxylic acid dimethylamide]
19 | 1 to 10 µM | 1 to 10 µM | CC(c1c(Cl)ccc(F)c1Cl)c1c[nH]c2ncc(-c3cnn(C(C)(C)C(=O)O)c3)cc12 (stereo not drawn) [Example 61, 2-(4-{3-[1-(2,6-Dichloro-3-fluorophenyl)ethyl]-1H-pyrrolo[2,3-b]pyridin-5-yl}-pyrazol-1-yl)-2-methylpropionic acid]
20 | ≤ 0.1 µM | 0.1 to 1 µM | CNC(=O)C(C)(C)n1cc(-c2cnc3[nH]cc(C(C)c4c(Cl)ccc(F)c4Cl)c3c2)cn1 (stereo not drawn) [Example 62, 2-(4-{3-[1-(2,6-Dichloro-3-fluorophenyl)ethyl]-1H-pyrrolo[2,3-b]pyridin-5-yl}-pyrazol-1-yl)-N-methylisobutyramide]
21 | ≤ 0.1 µM | 0.1 to 1 µM | CC(c1c(Cl)ccc(F)c1Cl)c1c[nH]c2ncc(-c3cnn(C(C)(C)C(=O)N(C)C)c3)cc12 (stereo not drawn) [Example 63, 2-(4-{3-[1-(2,6-Dichloro-3-fluorophenyl)ethyl]-1H-pyrrolo[2,3-b]pyridin-5-yl}-pyrazol-1-yl)-N,N-dimethylisobutyramide]
